According to patent publication US9428472B2, “Methods of treating bacterial infections with 1,2-benzisothiazolinone and isoindolinone derivatives” (GEORGETOWN UNIVERSITY, priority 2011, dated 2016):
Values after ≈ are worked out from the molar mass of the structure shown. Where two headings read alike, the source gives them in different places.

How the values were obtained:
[1] = tested on: Enterococcus fecalis 29212; assay: Disc-diffusion method (disc inhibition testing); assay type: cell-based; conditions: read-out: Zone diameter
Protocol: (§1) An inoculum of the tested organism was made from an 18-24 h agar plate and was grown overnight to 0.5 McFarland standard. This suspension was then spread on a fresh Mueller-Hinton plate in the following manner: Optimally, within 15 minutes after adjusting the turbidity of the inoculum suspension, a sterile cotton swab was dipped the suspension. The swab was rotated several times and pressed firmly on the inside wall of the tube to remove excess inoculum. The dried surface of the Mueller-Hinton agar plate was then inoculated by streaking the swab over the entire sterile agar surface. Discs of sterile filter paper were inoculated with standard amounts of compounds (5, 10 and 25 microgram) and were dried before application on to the streaked plate. A control disc with the same DMSO % as the test discs were also applied to the plate. The plates were inverted after 15 minutes and were placed in an incubator set to 35° C. After 16-18 h, the plates were examined. The circular zones of inhibition were evaluated by measuring the diameter of the circular margin with no obvious visible growth. The inhibition diameters of standardized drugs against the tested organism were also determined simultaneously and are compared to those mentioned in CLSI M02-A10.

[2] = tested on: Enterococcus fecalis 51299 (VRE); assay: Disc-diffusion method (disc inhibition testing); assay type: cell-based
Protocol: as §1

Group A Streptococci = assay: Disc-diffusion method (disc inhibition testing); assay type: cell-based; conditions: read-out: Zone diameter
Protocol: as §1

Micrococcus sp = assay: Disc-diffusion method (disc inhibition testing); assay type: cell-based; conditions: read-out: Zone diameter
Protocol: as §1

[3] = tested on: Staphylocccus saprophyticus; assay: Disc-diffusion method (disc inhibition testing); assay type: cell-based; conditions: read-out: Zone diameter
Protocol: as §1

[4] = tested on: Staphylococcus aureus 25923; assay: Disc-diffusion method (disc inhibition testing); assay type: cell-based; conditions: read-out: Zone diameter
Protocol: as §1

[5] = tested on: Staphylococcus aureus 29213; assay: Disc-diffusion method (disc inhibition testing); assay type: cell-based; conditions: read-out: Zone diameter
Protocol: as §1

[6] = tested on: Staphylococcus aureus 43300 (MRSA); assay: Disc-diffusion method (disc inhibition testing); assay type: cell-based
Protocol: as §1

Aeromonas sp = assay: Disc-diffusion method (disc inhibition testing); assay type: cell-based; conditions: Conc. 10/25/50 μg
Protocol: as §1, with “Discs of sterile filter paper were inoculated with standard amounts of compounds (5, 10 and 25 microgram) and were dried before application on to the streaked plate.” left out

E. Coli 25922 = assay: Disc-diffusion method (disc inhibition testing); assay type: cell-based; conditions: Conc. 10/25/50 μg
Protocol: as §1, with “Discs of sterile filter paper were inoculated with standard amounts of compounds (5, 10 and 25 microgram) and were dried before application on to the streaked plate.” left out

Klebsiella oxytoca = assay: Disc-diffusion method (disc inhibition testing); assay type: cell-based; conditions: Conc. 10/25/50 μg
Protocol: as §1, with “Discs of sterile filter paper were inoculated with standard amounts of compounds (5, 10 and 25 microgram) and were dried before application on to the streaked plate.” left out

Klebsiella pnemonia 1705 = assay: Disc-diffusion method (disc inhibition testing); assay type: cell-based; conditions: Conc. 10/25/50 μg
Protocol: as §1, with “Discs of sterile filter paper were inoculated with standard amounts of compounds (5, 10 and 25 microgram) and were dried before application on to the streaked plate.” left out

Proteus sp 35651 = assay: Disc-diffusion method (disc inhibition testing); assay type: cell-based; conditions: Conc. 10/25/50 μg
Protocol: as §1, with “Discs of sterile filter paper were inoculated with standard amounts of compounds (5, 10 and 25 microgram) and were dried before application on to the streaked plate.” left out

Pseudomonas aeroginosa = assay: Disc-diffusion method (disc inhibition testing); assay type: cell-based; conditions: Conc. 10/25/50 μg
Protocol: as §1, with “Discs of sterile filter paper were inoculated with standard amounts of compounds (5, 10 and 25 microgram) and were dried before application on to the streaked plate.” left out

Shigella sp = assay: Disc-diffusion method (disc inhibition testing); assay type: cell-based; conditions: Conc. 10/25/50 μg
Protocol: as §1, with “Discs of sterile filter paper were inoculated with standard amounts of compounds (5, 10 and 25 microgram) and were dried before application on to the streaked plate.” left out

Streptococcus pneumoniae = assay: Disc-diffusion method (disc inhibition testing); assay type: cell-based; conditions: Conc. 10/25/50 μg
Protocol: as §1, with “Discs of sterile filter paper were inoculated with standard amounts of compounds (5, 10 and 25 microgram) and were dried before application on to the streaked plate.” left out

[7] = tested on: Staphylococcus saprophyticus, Staphylococcus aureus, Micrococcus sp., Enterococcus fecalis and Group A Streptococcus; assay: Broth microdilution method, MIC-50 over the tested organisms; assay type: cell-based
Protocol: (§2) The in vitro toxicity of these compounds was determined by the neutral red (both compounds I-1 and I-2) and MTT (3-(4,5-Dimethylthiazol-2-yl)-2,5-diphenyltetrazolium bromide) assay (compound I-1) in human hepatic cell lines Huh7 and HepG2.
96 well plates were used to determine the MIC-50 endpoints for most fastidious organisms. The tested compounds were diluted in RPMI to 50 microgram/ml and 0.1 ml was added to the first well. Two-fold dilutions were made in subsequent wells in RPMI to get a range of concentrations from 0.1-50 μg/ml. The volume of diluted compound in each well was 100 microliter. Bacteria were grown in Mueller-Hinton Broth from a single colony from a fresh plate of the tested organism. The broth was grown overnight to 0.5 McFarland standard (10^8 cells) and further diluted in RPMI to get a final inoculum concentration of 5×10^5 CFU/mL. 15 minutes after the inoculum had been standardized as described above, 5 μl of this suspension was inoculated to each well containing 0.1 ml of the tested compound. This plate was then kept at 35° C. for 16-20 h in an ambient air incubator. […] The concentration of inoculum suspension was confirmed by replating on to agar plates. […] The endpoints of standardized drugs are also determined simultaneously and were compared to those mentioned in CLSI M07-08.

[8] = tested on: Gram-positive bacterial organisms; assay: Screening for antibacterial compounds (disc diffusion method, CSLI M02-A10); assay type: cell-based
Protocol: as §1

HepG2 = assay: In vitro toxicity, neutral red cell viability and MTT assays; assay type: cell-based, human
Protocol: as §2
(§3) The neutral red cell viability assay and the MTT assays were conducted with the active compounds at defined concentrations in human hepatoma cell lines, Huh7 and HepG2, as described by Repetto et al (Repetto G, Peso A. D. & Zurita J. L., Neutral red uptake assay for the estimation of cell viability/cytotoxicity, Nature Protocols 3, 1125-1131 (2008)) and Mosmann et al (Mosmann T., Rapid colorimetric assay for cellular growth and survival: application to proliferation and cytotoxicity assays, Journal of Immunological Methods 65 (1-2): 55-63, (December 1983)) respectively. The cell cytotoxicity (CC-50) concentrations were calculated for the HepG2 cell line.

Huh7 = assay: as above; assay type: cell-based, human
Protocol: as §2, §3

[9] = neutral red (I-1, I-2) and MTT (I-1)

O=C(Cn1sc2ccccc2c1=O)Nc1ccccc1Oc1ccccc1 [Compound I-2]
zone of inhibition at 10 µg/disc ([1]; Conc. 10 μg): 14 mm
zone of inhibition at 25 µg/disc ([1]; Conc. 25 μg): 16 mm
zone of inhibition at 50 µg/disc ([1]; Conc. 50 μg): 18 mm
zone of inhibition at 10 µg/disc ([2]; Enterococcus, VRE, Conc. 10 μg, read-out: Zone diameter): 17 mm
zone of inhibition at 25 µg/disc ([2]; Enterococcus, VRE, Conc. 25 μg, read-out: Zone diameter): 22 mm
zone of inhibition at 50 µg/disc ([2]; Enterococcus, VRE, Conc. 50 μg, read-out: Zone diameter): 24 mm
activity against Enterococcus fecalis ATCC 51299 (VRE) ([2]; method not named): active
zone of inhibition at 10 µg/disc (Group A Streptococci; Conc. 10 μg): 20 mm
zone of inhibition at 25 µg/disc (Group A Streptococci; Conc. 25 μg): 24 mm
zone of inhibition at 50 µg/disc (Group A Streptococci; Conc. 50 μg): 27 mm
zone of inhibition at 10 µg/disc (Micrococcus sp; Conc. 10 μg): 27 mm
zone of inhibition at 25 µg/disc (Micrococcus sp; Conc. 25 μg): 28 mm
zone of inhibition at 50 µg/disc (Micrococcus sp; Conc. 50 μg): 29 mm
zone of inhibition at 10 µg/disc ([3]; Conc. 10 μg): 22 mm
zone of inhibition at 25 µg/disc ([3]; Conc. 25 μg): 24 mm
zone of inhibition at 50 µg/disc ([3]; Conc. 50 μg): 25 mm
zone of inhibition at 10 µg/disc ([4]; Conc. 10 μg): 18 mm
zone of inhibition at 25 µg/disc ([4]; Conc. 25 μg): 21 mm
zone of inhibition at 50 µg/disc ([4]; Conc. 50 μg): 23 mm
zone of inhibition at 10 µg/disc ([5]; Conc. 10 μg): 16 mm
zone of inhibition at 25 µg/disc ([5]; Conc. 25 μg): 18 mm
zone of inhibition at 50 µg/disc ([5]; Conc. 50 μg): 22 mm
zone of inhibition at 10 µg/disc ([6]; Staphylococcus aureus, MRSA, Conc. 10 μg, read-out: Zone diameter): 19 mm
zone of inhibition at 25 µg/disc ([6]; Staphylococcus aureus, MRSA, Conc. 25 μg, read-out: Zone diameter): 19 mm
zone of inhibition at 50 µg/disc ([6]; Staphylococcus aureus, MRSA, Conc. 50 μg, read-out: Zone diameter): 23 mm
activity against Staphylococcus aureus ATCC 43300 (MRSA) ([6]; method not named): active
Zone diameter (Aeromonas sp): NOT ACTIVE
Zone diameter (E. Coli 25922): NOT ACTIVE
Zone diameter (Klebsiella oxytoca): NOT ACTIVE
Zone diameter (Klebsiella pnemonia 1705): NOT ACTIVE
Zone diameter (Proteus sp 35651): NOT ACTIVE
Zone diameter (Pseudomonas aeroginosa): NOT ACTIVE
Zone diameter (Shigella sp): NOT ACTIVE
Zone diameter (Streptococcus pneumoniae): NOT ACTIVE
MIC50 ([7]; range over the five named organisms, read-out: MIC-50 concentrations): 1 to 15 µg/mL (≈ 2.66 to 39.8 µM)
MIC50 ([7]; range over the tested gram positive pathogens, read-out: MIC-50 values): 1 to 15 µg/mL (≈ 2.66 to 39.8 µM)
activity against Staphylococcus saprophyticus, Staphylococcus aureus, Micrococcus sp., Enterococcus fecalis and Group A Streptococcus [8]: showed activity
antibiotic activity against Gram-positive bacterial organisms ([8]; disc diffusion screening): antibiotic activity
concentration up to which no toxicity was shown (HepG2): ≥ 100 microgram/ml
in vitro toxicity (HepG2; [9]): Minimal in vitro toxicity
concentration up to which no toxicity was shown (Huh7): ≥ 100 microgram/ml
in vitro toxicity (Huh7; [9]): Minimal in vitro toxicity
